Test results published in EP2812315B1, “PYRROLIC DERIVATIVES, PROCESSES FOR PREPARING THE SAME AND THEIR USES AS A DRUG” (Universite Joseph Fourier, priority 2012, dated 2013).
Values after ≈ are worked out from the molar mass of the structure shown.

Columns and labels:
Assay type in all cases: cell-based
[1] = tested on: Staphylococcus aureus (SA-1199B, NorA); experiment: Other MIC determination, microdilution method (CLSI M07-A9) with modifications; details: 18 h
Method: (§1) The microdilution method recommended by the Clinical and Laboratory Standard Institute [M07-A9, Vol.32, N°2] was used with the following modifications.
(§2) Bacterial inocula were prepared in Mueller Hinton broth (MH2, BioMérieux, Marcy L'Etoile, France). They were dispensed in 96 well microtiter plates (10^6 CFU/ml of final inoculum, 192 µL per well).
(§3) To avoid cross-contaminations in microtiter plates, one row was left blank between each strain tested. Microplates were incubated for 18h at 37 °C in ambient air. Then MICs were read visually and, in case of visual reading difficulties, confirmed using a spectrophotometer at a wavelength of 630 nm (BioTek® EL808 Absorbance Microplate Reader). MICs corresponded to the minimum pyrrolic compound concentrations that allowed complete visual growth inhibition of bacteria. Drug-free cultures served as growth controls.
(§4) We used four Staphylococcus aureus strains. Two reference strains were provided by the French reference center for Staphylococcus spp. (Lyon, France), including one methicillin-susceptible (MSSA 476) and one methicillin-resistant (MRSA 252) S. aureus strains. The two remaining S. aureus strains were purchased from the CRBIP (Centre de Ressources Biologiques de l'Institut Pasteur): a vancomycin-intermediate strain (ATCC 106414) and a S. aureus strain (SA-1199B) resistant to fluoroquinolones due to overexpression of the NorA multidrug efflux pump. Coagulase-negative Staphylococcus strains included three reference strains purchased from CRBIP: a methicillin-susceptible S. epidermidis strain (ATCC 12228), a methicillin-resistant S. epidermidis strain (ATCC 49461), and a methicillin-susceptible S. sciuri strain (ATCC 29061). We also used 37 clinical strains belonging to the following coagulase-negative Staphylococcus species: S. arlettae (two strains), S. capitis (nine strains), S. epidermidis (one strain), S. haemolyticus (six strains), S. hominis (eight strains), S. lugdunensis (one strain), S. massiliensis (one strain), S. pettenkoferi (two strains), S. saprophyticus (two strains), S. simulans (one strain), and S. warneri (four strains) . Identification of the clinical strains was first obtained using VITEK® 2 System (Biomérieux) and confirmed by amplification and sequencing of the tuf gene (Reference: Bergeron, M., O. Dauwalder, M. Gouy, A.-M. Freydiere, M. Bes, H. Meugnier, Y. Benito, J. Etienne, G. Lina, F. Vandenesch, and S. Boisset. Species identification of staphylococci by amplification and sequencing of the tuf gene compared to the gap gene and by matrix-assisted laser desorption ionization time-of-flight mass spectrometry, Eur. J. Clin. Microbial. Infect. Dis. 2011, 30, 343-354).
The activity of pyrrolic compounds 3c, 3e-3j and 3n was first tested against 12 Staphylococcus sp. strains, including 7 reference strains and five clinical strains. The MICs of these compounds against Staphylococcus aureus ATCC 106414 (VISA) and Staphylococcus epidermidis ATCC 12228 are in accordance with those described in Tables I and II.

[2] = tested on: Staphylococcus aureus ATCC 106414 (VISA); experiment: MIC determination, microdilution method (CLSI M07-A8); details: 5 x 10^5 CFU/mL, 18 hours incubation
Method: (§5) The microdilution method recommended by the Clinical and Laboratory Standard Institute [M07-A8, Vol.29, N°2] was used. The activity of pyrrolic compounds was tested against 29 bacterial strains belonging to 17 different species and 12 different genera (Staphylococcus, Streptococcus, Enterococcus, […], Bacillus, Haetttophilus, Escherichia, Klebsiella, Enterobacter, Serratia, Pseudomonas, and Acinetobacter). Bacterial inocula were prepared in Mueller Hinton broth (MH2, bioMérieux, Marcy L'Etoile, France), supplemented with 10% sheep blood for fastidious species (i.e., Streptococcus pneumoniae and Haemophilus influenzae). They were dispensed in 96 well microtiter plates (5 x 10^5 CFU/mL of final inoculum). Pyrrolic compounds were added to the wells as to obtain two-fold serial concentrations (0.25-64 mg/L). Plates were incubated at 37°C, in 5% CO2 enriched atmosphere for fastidious species only. MICs were read after 18 hours incubation of cultures, and corresponded to the minimum pyrrolic compound concentration that allowed complete visual growth inhibition of bacteria. Drug-free cultures served as growth controls. Cultures receiving gentamicine, ciprofloxacine or cefotaxime served as positive controls.

[3] = tested on: Staphylococcus aureus ATCC 33592 (MRSA); experiment: as above; details: 5 x 10^5 CFU/mL, 18 hours incubation
Method: as §5

[4] = tested on: Staphylococcus aureus ATCC 6538; experiment: as above; details: ATCC6538, 5 x 10^5 CFU/mL, 18 hours incubation
Method: as §5

[5] = tested on: Staphylococcus aureus ATCC 9144; experiment: as above; details: ATCC9144, 5 x 10^5 CFU/mL, 18 hours incubation
Method: as §5

[6] = tested on: Staphylococcus aureus CIP 103428; experiment: as above; details: CIP103428, 5 x 10^5 CFU/mL, 18 hours incubation
Method: as §5

[7] = tested on: Staphylococcus aureus CIP 65.25 (MRSA); experiment: as above; details: 5 x 10^5 CFU/mL, 18 hours incubation
Method: as §5

[8] = tested on: Staphylococcus aureus CIP 65.6; experiment: as above; details: CIP65, 5 x 10^5 CFU/mL, 18 hours incubation
Method: as §5

[9] = tested on: Staphylococcus epidermidis CIP 103627; experiment: as above; details: CIP103627, 5 x 10^5 CFU/mL, 18 hours incubation
Method: as §5

[10] = tested on: Staphylococcus epidermidis CIP 81.55; experiment: as above; details: CIP81, 5 x 10^5 CFU/mL, 18 hours incubation
Method: as §5

[11] = tested on: Staphylococcus arlettae (CHUG-Sarl1); experiment: Other MIC determination, microdilution method (CLSI M07-A9) with modifications; details: clinical strain
Method: as §1, §2, §3, §4
(§6) The activity of the pyrrolic compounds 3c and 3i was further tested against 32 clinical strains belonging to 11 coagulase-negative Staphylococcus species.

[12] = tested on: Staphylococcus capitis (CHUG-Scapi4); experiment: as above; details: clinical strain
Method: as §1, §2, §3, §4, §6

[13] = tested on: Staphylococcus capitis (CHUG-Scapi5); experiment: as above; details: clinical strain
Method: as §1, §2, §3, §4, §6

[14] = tested on: Staphylococcus capitis (CHUG-Scapi7); experiment: as above; details: clinical strain
Method: as §1, §2, §3, §4, §6

[15] = tested on: Staphylococcus epidermidis (CHUG-Sepi1); experiment: as above; details: clinical strain
Method: as §1, §2, §3, §4, §6

[16] = tested on: Staphylococcus haemolyticus (CHUG-Shae3); experiment: as above
Method: as §1, §2, §3, §4, §6

[17] = tested on: Staphylococcus haemolyticus (CHUG-Shae6); experiment: as above
Method: as §1, §2, §3, §4, §6

[18] = tested on: Staphylococcus hominis (CHUG-Shom2); experiment: as above; details: clinical strain
Method: as §1, §2, §3, §4, §6

[19] = tested on: Staphylococcus warneri (CHUG-Swar3); experiment: as above; details: clinical strain
Method: as §1, §2, §3, §4, §6

| SMILES | MIC [1] | MIC [2] | MIC [3] | MIC [4] | MIC [5] | MIC [6] | MIC [7] | MIC [8] | MIC [9] | MIC [10] | MIC [11] | MIC [12] | MIC [13] | MIC [14] | MIC [15] | MIC [16] | MIC [17] | MIC [18] | MIC [19] |
| --- | --- | --- | --- | --- | --- | --- | --- | --- | --- | --- | --- | --- | --- | --- | --- | --- | --- | --- | --- |
| CC(=O)c1c(C)[nH]c(C(c2ccc(F)cc2)c2[nH]c(C)c(C(C)=O)c2C)c1C [3g] | 8 µg/mL (≈ 21 µM) |  |  |  |  |  |  |  |  |  |  |  |  |  |  |  |  |  |  |
| CC(=O)c1c(C)[nH]c(C(c2cc3ccccc3s2)c2[nH]c(C)c(C(C)=O)c2C)c1C [3f] | 2 µg/mL (≈ 4.78 µM) | 2 µg/mL (≈ 4.78 µM) | 8 µg/mL (≈ 19.1 µM) | 2 µg/mL (≈ 4.78 µM) | 2 µg/mL (≈ 4.78 µM) | 2 µg/mL (≈ 4.78 µM) | 2 µg/mL (≈ 4.78 µM) | 2 µg/mL (≈ 4.78 µM) | > 128 µg/mL | > 128 µg/mL |  |  |  |  |  |  |  |  |  |
| CC(=O)c1c(C)[nH]c(C(c2cc3ccccc3o2)c2[nH]c(C)c(C(C)=O)c2C)c1C [3e] |  | 4 µg/mL (≈ 9.94 µM) | 4 µg/mL (≈ 9.94 µM) | 4 µg/mL (≈ 9.94 µM) | 4 µg/mL (≈ 9.94 µM) | 4 µg/mL (≈ 9.94 µM) | 2 µg/mL (≈ 4.97 µM) | 4 µg/mL (≈ 9.94 µM) | > 128 µg/mL | > 128 µg/mL |  |  |  |  |  |  |  |  |  |
| CC(=O)c1c(C)[nH]c(C(c2ccc(Cl)cc2)c2[nH]c(C)c(C(C)=O)c2C)c1C [3c] |  | 2 µg/mL (≈ 5.04 µM) | 4 µg/mL (≈ 10.1 µM) | 2 µg/mL (≈ 5.04 µM) | 4 µg/mL (≈ 10.1 µM) | 8 µg/mL (≈ 20.2 µM) | 2 µg/mL (≈ 5.04 µM) | 4 µg/mL (≈ 10.1 µM) | > 128 µg/mL | > 128 µg/mL | > 32 µg/mL | 4 µg/mL (≈ 10.1 µM) | 8 µg/mL (≈ 20.2 µM) | 8 µg/mL (≈ 20.2 µM) | 8 µg/mL (≈ 20.2 µM) | 16 µg/mL (≈ 40.3 µM) | 16 µg/mL (≈ 40.3 µM) | > 32 µg/mL | 8 µg/mL (≈ 20.2 µM) |
| CC(=O)c1c(C)[nH]c(C(c2[nH]c(C)c(C(C)=O)c2C)c2csc3ccccc23)c1C [3i] | 1 µg/mL (≈ 2.39 µM) | 0.5 µg/mL (≈ 1.19 µM) | 0.5 µg/mL (≈ 1.19 µM) | 0.5 µg/mL (≈ 1.19 µM) | 1 µg/mL (≈ 2.39 µM) | 0.5 µg/mL (≈ 1.19 µM) | 1 µg/mL (≈ 2.39 µM) | 0.5 µg/mL (≈ 1.19 µM) | > 128 µg/mL | > 128 µg/mL | > 16 µg/mL | 1 µg/mL (≈ 2.39 µM) | 2 µg/mL (≈ 4.78 µM) | 1 µg/mL (≈ 2.39 µM) | > 32 µg/mL | 4 µg/mL (≈ 9.56 µM) | 4 µg/mL (≈ 9.56 µM) | > 16 µg/mL | 1 µg/mL (≈ 2.39 µM) |
| CC(=O)c1c(C)[nH]c(C(c2[nH]c(C)c(C(C)=O)c2C)c2cccc3ccccc23)c1C [3h] | 2 µg/mL (≈ 4.85 µM) | 1 µg/mL (≈ 2.42 µM) | 1 µg/mL (≈ 2.42 µM) | 1 µg/mL (≈ 2.42 µM) | 8 µg/mL (≈ 19.4 µM) | 1 µg/mL (≈ 2.42 µM) | 1 µg/mL (≈ 2.42 µM) | 1 µg/mL (≈ 2.42 µM) | > 128 µg/mL | > 128 µg/mL |  |  |  |  |  |  |  |  |  |
| COC(=O)c1cccc(C(c2[nH]c(C)c(C(C)=O)c2C)c2[nH]c(C)c(C(C)=O)c2C)c1 [3j, Methyl-3-[bis(4-acetyl-3,5-dimethyl-1H-pyrrol-2-yl)methyl]benzoate] | 8 µg/mL (≈ 19 µM) |  |  |  |  |  |  |  |  |  |  |  |  |  |  |  |  |  |  |
